Results: US20220031713A1, “METHODS OF TREATING MYELOPROLIFERATIVE DISORDERS” (Impact Biomedicines, Inc., priority 2018, published 2022)
Where two headings read alike, the source gives them in different places.

Assays:
[1] = system: intermediate or high-risk MPN-associated myelofibrosis (MF); settings: at 24 weeks, COMFORT-I; cited from earlier work
[2] = system: intermediate or high-risk MPN-associated myelofibrosis (MF); settings: cited from earlier work
[3] = system: bone marrow fibrosis; settings: at 24 months; cited from earlier work
[4] = system: MPN-associated myelofibrosis; settings: cited from earlier work
[5] = system: myelofibrosis; settings: cited from earlier work
[6] = system: PD-L1 expression in MPN myeloid cells; settings: cited from earlier work
[7] = system: graft-versus-host disease (GVHD); settings: cited from earlier work
[8] = system: MF; settings: week 24; previous ruxolitinib treatment; cited from earlier work
[9] = system: myelofibrosis; settings: week 24, subgroup with prior ruxolitinib, cited from earlier work
[10] = system: JAK2 signaling; assay: Cellular assay of JAK2 signaling; assay type: cell-based; settings: cellular assays
[11] = system: cellular proliferation driven by mutant JAK2 or mutant MPL; assay: Cellular proliferation driven by mutant JAK2 or mutant MPL; assay type: cell-based; settings: cellular assays
[12] = system: cells expressing constitutively active JAK2; assay: Apoptosis in cells expressing constitutively active JAK2; assay type: cell-based; settings: cellular assays
[13] = system: hematopoietic progenitors isolated from myeloproliferative neoplasm (MPN) patients; assay: Erythroid colony formation of hematopoietic progenitors; assay type: cell-based, human
[14] = system: intermediate-2 or high-risk MF; settings: cited from earlier work
[15] = system: intermediate-1 with symptoms, intermediate-2 or high-risk MPN-associated myelofibrosis; settings: cited from earlier work
[16] = system: JAK2V617F; settings: non-clinical models of MF; cited from earlier work
[17] = system: JAK2V617F; settings: MF patients; cited from earlier work
[18] = system: circulating cytokines; settings: MF patients not previously treated with JAK inhibitors; cited from earlier work
[19] = system: PD-L1 expression in lymphoma tumor cells; settings: cited from earlier work
[20] = system: T cell development; settings: non-clinical data; cited from earlier work
[21] = ruxolitinib therapy, compared with BAT
[22] = patients previously treated with ruxolitinib

## N#CC[C@H](C1CCCC1)n1cc(-c2ncnc3[nH]ccc23)cn1 [ruxolitinib, (3R)-3-cyclopentyl-3-[4-(7H-pyrrolo[2,3-d]pyrimidin-4-yl)pyrazol-1-yl]propanenitrile]
[1]
  proportion of subjects exhibiting a ≥35% reduction in spleen volume as measured by MRI: 41.9%
  subjects with >50% improvement in MFSAF Total Symptom Score (TSS): 45.9%
[2]; at 48 weeks, COMFORT-II
  proportion of subjects exhibiting a ≥35% reduction in spleen volume as measured by MRI: 28.5%
[2]; at 144 weeks, COMFORT-II 3-year follow-up
  Kaplan-Meier estimated probability of survival: 81%
[3]
  subjects with improvement in bone marrow fibrosis: 15%
[4]; in vivo
  time after therapy initiation within which responses are typically observed: 3-6 months
[4]; [21]
  treatment-associated anemia: 40.4%
  treatment-associated thrombocytopenia: 44.5%
[5]; after ruxolitinib discontinuation
  median survival of relapsed and refractory patients who discontinued ruxolitinib: 6 months
[5]; median follow-up of 10 months from stopping ruxolitinib
  patients remaining alive: 34%
[6]
  effect on PD-L1 expression: modulate PD-L1 expression
[7]; preclinical and clinical data
  effect on graft-versus-host disease (GVHD): suppressing graft-versus-host disease

## N#CCNC(=O)c1ccc(-c2ccnc(Nc3ccc(N4CCOCC4)cc3)n2)cc1 [momelotinib]
[8]
  subjects with spleen volume response of 35% or more: 7%

## C1=C/COCc2cc(ccc2OCCN2CCCC2)Nc2nccc(n2)-c2cccc(c2)COC/1 [pacritinib]
[9]; 200 mg twice daily
  subjects with spleen volume response of 35% or more: 13%
[9]; 400 mg once daily
  subjects with spleen volume response of 35% or more: 6%

## Cc1cnc(Nc2ccc(OCCN3CCCC3)cc2)nc1Nc1cccc(S(=O)(=O)NC(C)(C)C)c1 [Compound I, fedratinib]
[10]
  effect on JAK2 signaling: inhibits JAK2 signaling
[11]
  effect on cellular proliferation driven by mutant JAK2 or mutant MPL: inhibits
[12]
  apoptosis in cells expressing constitutively active JAK2: induces apoptosis
[13]
  erythroid colony formation of hematopoietic progenitors: inhibits erythroid colony formation
[14]; 400 mg daily, all grades
  TEAE diarrhea: 65.6%
  TEAE fatigue: 15.6%
  TEAE nausea: 63.5%
  TEAE peripheral edema: 15.6%
  TEAE vomiting: 41.7%
[14]; 400 mg daily
  TEAE anemia (G3 and G4): 42.7%
  response rate at Cycle 6 as recommended by IWG-MRT (regardless of confirmation): 46.9%
  response rate per primary endpoint (≥35% reduction in spleen volume to End of Cycle 6, confirmed 4 weeks later by MRI): 36.5%
[14]; 400 mg
  TEAEs leading to permanent treatment discontinuation: 27.1%
  subjects achieving a ≥50% reduction in TSS: 36.3%
  subjects reporting Grade 3 or 4 TEAEs: 70.8%
  treatment-emergent serious adverse events (SAEs): 38.5%
[14]; 500 mg daily
  response rate at Cycle 6 as recommended by IWG-MRT (regardless of confirmation): 49.5%
  response rate per primary endpoint (≥35% reduction in spleen volume to End of Cycle 6, confirmed 4 weeks later by MRI): 40.2%
[14]; 500 mg
  TEAEs leading to permanent treatment discontinuation: 36.1%
  subjects achieving a ≥50% reduction in TSS: 34.1%
  subjects reporting Grade 3 or 4 TEAEs: 78.4%
  treatment-emergent serious adverse events (SAEs): 44.3%
[14]; responders from both active groups (400-mg and 500-mg)
  median duration of response (≥35% reduction in spleen volume): 10.4 months
[15]; 97 patients
  patients with at least 1 TEAE (all grades): 97 patients
[15]; all grades
  TEAE anemia: 48.5%
  TEAE diarrhea: 61.9%
  TEAE nausea: 55.7%
  TEAE thrombocytopenia: 26.8%
  TEAE vomiting: 41.2%
[15]; in vivo
  Grade 3 or 4 anemia: Thirty-eight and one-tenth
  Grade 3 or 4 thrombocytopenia: 21.6%
  grade 5 hematologic TEAEs: No grade 5 hematologic TEAEs were reported
  patients reporting Grade 3 or 4 TEAEs: 62.9%
[15]; [22]
  overall spleen response rate (≥35% reduction from baseline in spleen volume to the End of Cycle 6): 55.4%
  subjects achieving a ≥50% reduction in TSS: 25.6%
[16]
  JAK2V617F frequency: decrease JAK2V617F frequency
[17]
  JAK2V617F frequency: decrease JAK2V617F frequency
[18]
  effect on circulating cytokines: modulate circulating cytokines
[19]
  effect on PD-L1 expression: modulate PD-L1 expression
[7]; non-clinical data
  effect on GVHD: weak effect
[20]
  effect on T cell development: weak effect
